Where a name gives a salt, the structure may show the parent alone.
Assays:
[1] = target: Sodium-dependent serotonin transporter (Homo sapiens, UniProt P31645); test: (§1) PDSP Secondary Binding target: SLC6A4 - Compounds are tested at 10 uM concentration, plate are incubated at room temperature in the dark for 90 minutes. Reaction are stopped by vacuum filtration onto 0.3% polyethyleneimine soaked filter mats using Filtermate harvester. Scintillation cocktail is then melted onto microwave-dried filters on a hot plate and the radio activity is counted in Microbia counter.
[2] = target: Sodium-dependent noradrenaline transporter (Homo sapiens, UniProt P23975); test: as §1, with “SLC6A2” for “SLC6A4”
[3] = target: 5-hydroxytryptamine receptor 5A (Homo sapiens, UniProt P47898); test: as §1, with “HTR5A” for “SLC6A4”
Translocator protein = Translocator protein (Homo sapiens, UniProt P30536); test: as §1, with “TSPO” for “SLC6A4”
D(3) dopamine receptor = D(3) dopamine receptor (Homo sapiens, UniProt P35462); test: as §1, with “DRD3” for “SLC6A4”
[4] = target: T1, Alpha-1B adrenergic receptor (Homo sapiens, UniProt P35368); test: as §1, with “ADRA1B” for “SLC6A4”
T1 sequence (P35368 whole entry): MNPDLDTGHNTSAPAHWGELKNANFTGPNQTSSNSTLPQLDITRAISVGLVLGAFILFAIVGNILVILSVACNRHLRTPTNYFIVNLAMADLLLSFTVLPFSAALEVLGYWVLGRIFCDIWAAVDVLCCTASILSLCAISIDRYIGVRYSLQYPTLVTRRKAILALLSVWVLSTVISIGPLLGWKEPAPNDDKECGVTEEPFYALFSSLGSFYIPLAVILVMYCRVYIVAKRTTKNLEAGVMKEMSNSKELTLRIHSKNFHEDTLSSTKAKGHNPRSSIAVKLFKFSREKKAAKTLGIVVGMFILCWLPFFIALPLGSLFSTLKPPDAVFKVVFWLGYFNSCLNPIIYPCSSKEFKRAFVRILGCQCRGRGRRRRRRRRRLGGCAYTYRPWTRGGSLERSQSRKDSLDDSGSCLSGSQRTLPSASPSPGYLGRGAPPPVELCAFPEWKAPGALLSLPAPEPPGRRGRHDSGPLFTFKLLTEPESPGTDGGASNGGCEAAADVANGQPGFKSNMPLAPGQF

[5] = target: 5-hydroxytryptamine receptor 7 (Homo sapiens, UniProt P34969); test: as §1, with “HTR7” for “SLC6A4”
[6] = target: T2, Alpha-1D adrenergic receptor (Homo sapiens, UniProt P25100); test: as §1, with “ADRA1D” for “SLC6A4”
T2 sequence (P25100 whole entry): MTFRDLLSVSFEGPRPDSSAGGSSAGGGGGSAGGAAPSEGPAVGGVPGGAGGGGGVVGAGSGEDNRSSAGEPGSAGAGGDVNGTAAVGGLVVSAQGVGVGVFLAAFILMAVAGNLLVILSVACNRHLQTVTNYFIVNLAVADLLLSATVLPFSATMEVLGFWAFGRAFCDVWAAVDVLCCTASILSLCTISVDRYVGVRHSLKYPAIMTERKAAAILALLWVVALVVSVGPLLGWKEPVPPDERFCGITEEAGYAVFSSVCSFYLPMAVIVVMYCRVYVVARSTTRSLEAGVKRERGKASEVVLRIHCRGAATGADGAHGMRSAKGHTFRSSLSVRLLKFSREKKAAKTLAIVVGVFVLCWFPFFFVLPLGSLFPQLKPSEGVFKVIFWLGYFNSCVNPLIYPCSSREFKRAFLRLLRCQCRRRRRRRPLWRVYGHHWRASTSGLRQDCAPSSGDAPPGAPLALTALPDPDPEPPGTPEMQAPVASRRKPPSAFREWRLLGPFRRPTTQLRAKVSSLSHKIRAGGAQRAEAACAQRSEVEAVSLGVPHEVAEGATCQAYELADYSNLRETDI

[7] = target: Sigma intracellular receptor 2 (Homo sapiens, UniProt Q5BJF2); test: as §1, with “TMEM97” for “SLC6A4”
[8] = target: 5-hydroxytryptamine receptor 6 (Homo sapiens, UniProt P50406); test: as §1, with “HTR6” for “SLC6A4”
[9] = target: Sigma non-opioid intracellular receptor 1 (Homo sapiens, UniProt Q99720); test: as §1, with “SIGMAR1” for “SLC6A4”
[10] = target: T3, 5-hydroxytryptamine receptor 2C (Homo sapiens, UniProt P28335); test: as §1, with “HTR2C” for “SLC6A4”
T3 sequence (P28335 whole entry): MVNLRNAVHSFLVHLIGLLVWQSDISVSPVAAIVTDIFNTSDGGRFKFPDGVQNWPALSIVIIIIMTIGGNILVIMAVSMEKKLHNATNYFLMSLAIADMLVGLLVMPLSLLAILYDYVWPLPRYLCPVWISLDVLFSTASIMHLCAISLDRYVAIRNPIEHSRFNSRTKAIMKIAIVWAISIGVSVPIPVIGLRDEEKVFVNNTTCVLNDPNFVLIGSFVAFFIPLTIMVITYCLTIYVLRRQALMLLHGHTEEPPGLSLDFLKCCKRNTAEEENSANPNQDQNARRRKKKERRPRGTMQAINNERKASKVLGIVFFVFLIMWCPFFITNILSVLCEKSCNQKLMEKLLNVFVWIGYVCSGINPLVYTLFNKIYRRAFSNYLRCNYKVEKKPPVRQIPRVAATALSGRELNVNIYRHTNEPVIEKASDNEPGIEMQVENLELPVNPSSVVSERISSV

[11] = target: T4, Alpha-2B adrenergic receptor (Homo sapiens, UniProt P18089); test: as §1, with “ADRA2B” for “SLC6A4”
T4 sequence (P18089 whole entry): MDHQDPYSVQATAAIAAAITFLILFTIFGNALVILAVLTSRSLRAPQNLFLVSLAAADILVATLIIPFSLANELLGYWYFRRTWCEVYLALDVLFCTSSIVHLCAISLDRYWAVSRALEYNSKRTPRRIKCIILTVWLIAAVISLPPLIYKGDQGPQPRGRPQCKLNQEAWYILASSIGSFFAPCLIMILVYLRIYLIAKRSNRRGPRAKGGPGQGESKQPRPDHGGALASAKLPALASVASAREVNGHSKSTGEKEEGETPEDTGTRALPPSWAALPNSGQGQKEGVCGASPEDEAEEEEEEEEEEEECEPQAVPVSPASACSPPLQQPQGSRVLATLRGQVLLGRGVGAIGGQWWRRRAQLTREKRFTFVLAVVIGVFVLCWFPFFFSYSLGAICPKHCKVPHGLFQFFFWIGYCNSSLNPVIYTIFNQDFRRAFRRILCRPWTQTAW

[12] = target: 5-hydroxytryptamine receptor 1D (Homo sapiens, UniProt P28221); test: as §1, with “HTR1D” for “SLC6A4”
[13] = target: T5, Alpha-2A adrenergic receptor (Homo sapiens, UniProt P08913); test: as §1, with “ADRA2A” for “SLC6A4”
T5 sequence (P08913 whole entry): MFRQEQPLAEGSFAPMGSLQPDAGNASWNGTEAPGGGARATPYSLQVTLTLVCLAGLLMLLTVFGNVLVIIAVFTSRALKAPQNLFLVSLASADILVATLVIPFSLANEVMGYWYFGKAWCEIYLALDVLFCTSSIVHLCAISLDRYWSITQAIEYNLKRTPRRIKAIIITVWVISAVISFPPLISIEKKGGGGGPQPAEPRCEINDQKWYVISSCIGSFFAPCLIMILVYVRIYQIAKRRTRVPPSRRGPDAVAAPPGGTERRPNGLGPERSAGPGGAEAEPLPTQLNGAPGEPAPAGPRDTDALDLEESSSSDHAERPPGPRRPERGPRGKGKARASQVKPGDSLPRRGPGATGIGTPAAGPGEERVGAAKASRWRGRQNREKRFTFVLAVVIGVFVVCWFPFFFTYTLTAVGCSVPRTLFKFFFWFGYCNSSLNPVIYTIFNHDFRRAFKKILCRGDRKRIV

Mu-type opioid receptor = Mu-type opioid receptor (Homo sapiens, UniProt P35372); test: as §1, with “OPRM1” for “SLC6A4”
Histamine H1 receptor = Histamine H1 receptor (Homo sapiens, UniProt P35367); test: as §1, with “HRH1” for “SLC6A4”
[14] = target: 5-hydroxytryptamine receptor 1B (Homo sapiens, UniProt P28222); test: as §1, with “HTR1B” for “SLC6A4”
D(4) dopamine receptor = target: T6, D(4) dopamine receptor (Homo sapiens, UniProt P21917); test: as §1, with “DRD4” for “SLC6A4”
T6 sequence (P21917 whole entry): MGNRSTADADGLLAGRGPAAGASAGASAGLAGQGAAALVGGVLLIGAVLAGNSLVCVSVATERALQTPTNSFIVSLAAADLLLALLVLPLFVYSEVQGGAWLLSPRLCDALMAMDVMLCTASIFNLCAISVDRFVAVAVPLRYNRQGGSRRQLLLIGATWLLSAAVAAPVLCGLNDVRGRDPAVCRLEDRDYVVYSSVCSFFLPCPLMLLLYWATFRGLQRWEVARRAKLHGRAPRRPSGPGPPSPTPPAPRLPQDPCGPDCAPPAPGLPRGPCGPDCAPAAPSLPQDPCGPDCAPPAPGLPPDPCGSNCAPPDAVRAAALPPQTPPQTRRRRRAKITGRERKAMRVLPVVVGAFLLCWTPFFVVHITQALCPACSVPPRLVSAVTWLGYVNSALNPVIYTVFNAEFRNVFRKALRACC

[15] = target: Kappa-type opioid receptor (Homo sapiens, UniProt P41145); test: as §1, with “OPRK1” for “SLC6A4”
Sequence of Kappa-type opioid receptor (P41145 whole entry): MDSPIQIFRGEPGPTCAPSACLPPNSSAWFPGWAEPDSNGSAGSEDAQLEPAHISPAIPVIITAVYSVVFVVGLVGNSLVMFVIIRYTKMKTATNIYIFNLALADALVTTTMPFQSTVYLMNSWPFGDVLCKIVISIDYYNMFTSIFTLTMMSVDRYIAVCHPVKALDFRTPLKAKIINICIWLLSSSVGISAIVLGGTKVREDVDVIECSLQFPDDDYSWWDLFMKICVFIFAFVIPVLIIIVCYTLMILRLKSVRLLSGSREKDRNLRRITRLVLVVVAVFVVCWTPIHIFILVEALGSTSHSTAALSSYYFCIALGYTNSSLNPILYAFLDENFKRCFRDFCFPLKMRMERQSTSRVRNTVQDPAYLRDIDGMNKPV

Sequence of D(3) dopamine receptor (P35462 whole entry): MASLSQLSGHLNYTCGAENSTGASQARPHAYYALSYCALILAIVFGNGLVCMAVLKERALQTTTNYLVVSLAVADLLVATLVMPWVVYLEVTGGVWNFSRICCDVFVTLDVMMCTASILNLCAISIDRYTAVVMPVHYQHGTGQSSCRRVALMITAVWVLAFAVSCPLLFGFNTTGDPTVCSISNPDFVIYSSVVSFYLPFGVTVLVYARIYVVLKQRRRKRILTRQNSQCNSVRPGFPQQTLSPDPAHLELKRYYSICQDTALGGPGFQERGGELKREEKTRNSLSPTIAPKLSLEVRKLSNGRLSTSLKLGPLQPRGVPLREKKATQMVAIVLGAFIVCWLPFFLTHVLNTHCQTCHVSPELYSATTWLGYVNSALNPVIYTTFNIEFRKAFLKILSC
Sequence of Sodium-dependent serotonin transporter (P31645 whole entry): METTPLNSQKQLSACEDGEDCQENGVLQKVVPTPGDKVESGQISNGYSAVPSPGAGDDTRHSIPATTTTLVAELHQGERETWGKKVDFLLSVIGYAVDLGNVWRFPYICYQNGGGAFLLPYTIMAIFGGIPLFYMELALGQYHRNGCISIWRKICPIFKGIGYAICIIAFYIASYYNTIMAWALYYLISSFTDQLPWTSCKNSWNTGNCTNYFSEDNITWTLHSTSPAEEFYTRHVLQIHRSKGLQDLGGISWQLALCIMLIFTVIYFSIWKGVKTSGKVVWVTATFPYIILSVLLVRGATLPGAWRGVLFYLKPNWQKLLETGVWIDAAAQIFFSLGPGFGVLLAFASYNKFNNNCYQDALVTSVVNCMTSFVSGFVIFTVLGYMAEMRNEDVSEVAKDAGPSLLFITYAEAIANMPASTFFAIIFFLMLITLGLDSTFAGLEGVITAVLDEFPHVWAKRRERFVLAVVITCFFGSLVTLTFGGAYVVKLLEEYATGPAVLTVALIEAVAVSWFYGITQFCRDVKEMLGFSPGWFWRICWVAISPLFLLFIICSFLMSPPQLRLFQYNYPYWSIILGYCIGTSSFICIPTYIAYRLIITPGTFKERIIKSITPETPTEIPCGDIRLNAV
Sequence of Sigma intracellular receptor 2 (Q5BJF2 whole entry): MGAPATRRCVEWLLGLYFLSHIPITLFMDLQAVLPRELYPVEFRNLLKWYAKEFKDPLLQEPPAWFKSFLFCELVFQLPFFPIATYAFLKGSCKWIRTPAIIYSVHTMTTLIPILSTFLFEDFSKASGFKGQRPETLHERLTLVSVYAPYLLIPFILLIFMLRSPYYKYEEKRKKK
Sequence of Sodium-dependent noradrenaline transporter (P23975 whole entry): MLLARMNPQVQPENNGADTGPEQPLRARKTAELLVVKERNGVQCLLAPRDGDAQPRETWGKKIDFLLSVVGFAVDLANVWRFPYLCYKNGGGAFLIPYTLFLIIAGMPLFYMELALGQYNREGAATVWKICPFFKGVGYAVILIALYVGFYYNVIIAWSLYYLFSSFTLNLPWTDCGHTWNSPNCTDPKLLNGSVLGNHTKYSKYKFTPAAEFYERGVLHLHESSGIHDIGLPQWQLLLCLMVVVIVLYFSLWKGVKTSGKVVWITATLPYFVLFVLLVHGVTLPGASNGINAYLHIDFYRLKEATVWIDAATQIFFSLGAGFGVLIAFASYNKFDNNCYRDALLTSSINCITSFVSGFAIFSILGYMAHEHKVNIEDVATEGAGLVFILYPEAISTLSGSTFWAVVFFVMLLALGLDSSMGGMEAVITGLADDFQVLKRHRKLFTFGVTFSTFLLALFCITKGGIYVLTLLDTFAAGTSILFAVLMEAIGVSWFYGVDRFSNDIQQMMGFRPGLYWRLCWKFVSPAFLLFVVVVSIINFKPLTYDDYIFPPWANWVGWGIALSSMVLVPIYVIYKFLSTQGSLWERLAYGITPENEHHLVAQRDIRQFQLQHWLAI
Sequence of 5-hydroxytryptamine receptor 6 (P50406 whole entry): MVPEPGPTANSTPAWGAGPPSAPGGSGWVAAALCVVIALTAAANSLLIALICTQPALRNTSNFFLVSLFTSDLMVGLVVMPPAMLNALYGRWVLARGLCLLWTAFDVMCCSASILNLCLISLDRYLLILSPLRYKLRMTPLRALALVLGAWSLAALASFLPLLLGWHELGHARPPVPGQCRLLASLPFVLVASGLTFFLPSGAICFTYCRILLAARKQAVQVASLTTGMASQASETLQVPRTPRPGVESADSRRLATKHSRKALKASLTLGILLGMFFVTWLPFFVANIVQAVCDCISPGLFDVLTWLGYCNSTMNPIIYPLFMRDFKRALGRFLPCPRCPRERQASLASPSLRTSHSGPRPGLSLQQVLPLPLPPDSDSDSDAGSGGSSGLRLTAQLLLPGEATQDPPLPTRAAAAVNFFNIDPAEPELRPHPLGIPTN
Sequence of 5-hydroxytryptamine receptor 7 (P34969 whole entry): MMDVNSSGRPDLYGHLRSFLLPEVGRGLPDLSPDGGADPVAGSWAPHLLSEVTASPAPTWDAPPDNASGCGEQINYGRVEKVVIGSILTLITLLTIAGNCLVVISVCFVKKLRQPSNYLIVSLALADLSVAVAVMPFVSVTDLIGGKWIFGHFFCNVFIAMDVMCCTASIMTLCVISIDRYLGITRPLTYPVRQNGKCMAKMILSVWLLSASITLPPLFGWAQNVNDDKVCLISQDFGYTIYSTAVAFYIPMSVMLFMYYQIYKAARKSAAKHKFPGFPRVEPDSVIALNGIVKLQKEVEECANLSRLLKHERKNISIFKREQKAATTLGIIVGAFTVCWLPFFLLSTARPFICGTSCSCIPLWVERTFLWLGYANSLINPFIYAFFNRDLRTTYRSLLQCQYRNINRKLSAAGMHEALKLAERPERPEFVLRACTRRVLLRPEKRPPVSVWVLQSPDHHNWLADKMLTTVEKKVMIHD
Sequence of 5-hydroxytryptamine receptor 1B (P28222 whole entry): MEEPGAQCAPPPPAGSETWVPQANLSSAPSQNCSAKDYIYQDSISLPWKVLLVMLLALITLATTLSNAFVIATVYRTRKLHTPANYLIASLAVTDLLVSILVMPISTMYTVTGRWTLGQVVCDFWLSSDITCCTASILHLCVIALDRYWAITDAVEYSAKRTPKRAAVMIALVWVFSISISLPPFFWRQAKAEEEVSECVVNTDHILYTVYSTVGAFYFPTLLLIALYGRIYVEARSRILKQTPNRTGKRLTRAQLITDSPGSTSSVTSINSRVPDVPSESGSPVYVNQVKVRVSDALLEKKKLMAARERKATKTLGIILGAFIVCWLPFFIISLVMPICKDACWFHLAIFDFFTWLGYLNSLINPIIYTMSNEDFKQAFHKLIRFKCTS
Sequence of Sigma non-opioid intracellular receptor 1 (Q99720 whole entry): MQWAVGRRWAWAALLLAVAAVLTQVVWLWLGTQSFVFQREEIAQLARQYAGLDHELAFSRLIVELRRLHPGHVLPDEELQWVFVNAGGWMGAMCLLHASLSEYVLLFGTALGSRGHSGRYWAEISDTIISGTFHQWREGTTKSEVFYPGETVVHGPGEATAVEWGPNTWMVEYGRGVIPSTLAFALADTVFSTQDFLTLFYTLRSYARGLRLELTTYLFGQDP
Sequence of Translocator protein (P30536 whole entry): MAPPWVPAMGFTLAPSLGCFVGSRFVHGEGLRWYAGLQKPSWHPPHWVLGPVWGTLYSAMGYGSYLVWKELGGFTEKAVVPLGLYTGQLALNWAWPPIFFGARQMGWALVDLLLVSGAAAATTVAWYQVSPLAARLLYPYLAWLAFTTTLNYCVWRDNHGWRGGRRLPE
Sequence of 5-hydroxytryptamine receptor 1D (P28221 whole entry): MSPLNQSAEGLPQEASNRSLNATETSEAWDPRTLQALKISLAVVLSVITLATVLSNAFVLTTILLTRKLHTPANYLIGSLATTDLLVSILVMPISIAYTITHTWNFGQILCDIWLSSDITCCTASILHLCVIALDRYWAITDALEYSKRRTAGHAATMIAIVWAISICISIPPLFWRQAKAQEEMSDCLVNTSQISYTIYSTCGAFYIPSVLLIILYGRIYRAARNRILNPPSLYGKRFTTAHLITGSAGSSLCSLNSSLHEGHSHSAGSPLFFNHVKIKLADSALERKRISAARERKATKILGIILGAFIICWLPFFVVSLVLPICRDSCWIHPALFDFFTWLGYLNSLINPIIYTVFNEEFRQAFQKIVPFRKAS
Sequence of Histamine H1 receptor (P35367 whole entry): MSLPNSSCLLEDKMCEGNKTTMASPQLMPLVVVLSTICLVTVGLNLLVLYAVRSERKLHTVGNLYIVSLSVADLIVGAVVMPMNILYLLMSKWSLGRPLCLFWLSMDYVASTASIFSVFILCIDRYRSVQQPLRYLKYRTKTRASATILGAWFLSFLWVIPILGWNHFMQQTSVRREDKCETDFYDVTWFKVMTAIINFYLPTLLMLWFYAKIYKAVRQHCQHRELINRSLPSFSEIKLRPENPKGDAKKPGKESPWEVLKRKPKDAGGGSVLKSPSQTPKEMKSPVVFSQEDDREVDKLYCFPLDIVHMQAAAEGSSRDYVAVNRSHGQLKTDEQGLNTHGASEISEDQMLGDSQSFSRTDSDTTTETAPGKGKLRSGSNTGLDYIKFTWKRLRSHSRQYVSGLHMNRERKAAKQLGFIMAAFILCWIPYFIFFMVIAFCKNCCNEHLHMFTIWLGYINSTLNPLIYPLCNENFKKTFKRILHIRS

| SMILES | Ki [1] | Ki [2] | Ki (D(3) dopamine receptor) | Ki [6] | Ki [7] | further results |
| --- | --- | --- | --- | --- | --- | --- |
| O=C(O)c1n[nH]c2c1C[C@H]1C[C@@H]21 | 2.43 µM | > 10 µM | – | – | – | Ki [3]: > 10 µM |
| CCCNS(=O)(=O)Nc1ncnc(OCCOc2ncc(Br)cn2)c1-c1ccc(Br)cc1 | > 10 µM | 4.83 µM | 1 µM | – | – | Ki (Translocator protein): 2.12 µM |
| Brc1c(NC2=NCCN2)ccc2nccnc12 | – | – | – | 2.11 µM | 1.53 µM | Ki [4]: 4.2 µM; Ki [5]: 1.11 µM |
| CC(C)NCC(O)COc1cccc2ccccc12 (stereo unspecified) [PROPRANOLOL HYDROCHLORIDE] | – | – | – | – | 0.353 µM | Ki [8]: 0.542 µM; Ki [9]: 0.0954 µM |
| CCCn1c(=O)c2[nH]c(-c3cnn(Cc4cccc(C(F)(F)F)c4)c3)nc2n(CC)c1=O [GS 6201] | – | – | – | > 10 µM | – | – |
| CCCCCCCCCCCCCCCCOC[C@H](COP(=O)([O-])OCC[N+](C)(C)C)OC(C)=O | – | – | 1.76 µM | 2.05 µM | 1.82 µM | Ki [4]: 4.49 µM; Ki [10]: 3.08 µM; Ki [11]: > 10 µM; Ki [12]: 8.52 µM; Ki [13]: > 10 µM |
| Cc1ccccc1C(=O)Nc1ccc(C(=O)N2CCCC(O)c3cc(Cl)ccc32)c(C)c1 (stereo unspecified) [TOLVAPTAN] | – | – | – | – | 1.03 µM | Ki [10]: 4.86 µM; Ki (Mu-type opioid receptor): 0.41 µM; Ki (Histamine H1 receptor): 6.69 µM |
| C[C@H](CO)Nc1nc(SCc2cccc(Cl)c2F)nc2[nH]c(=O)sc12 | – | > 10 µM | – | – | – | Ki [14]: 8.41 µM |
| COc1ccc(S(=O)(=O)c2cc(OC)ccc2S(=O)(=O)c2ccc([C@H](C)NS(C)(=O)=O)cc2)cc1 | – | – | 0.559 µM | – | – | Ki (D(4) dopamine receptor): 1.16 µM; Ki [8]: 0.28 µM |
| CCCCCNC(=O)NS(=O)(=O)c1cc([N+](=O)[O-])ccc1NC1CCCCC1 | 7.77 µM | 6.91 µM | 2.58 µM | – | – | – |
| N#Cc1c(N)nc(SCC(N)=O)c(C#N)c1-c1ccc(OCC2CC2)cc1 | – | – | – | – | – | Ki [15]: 0.407 µM; Ki [9]: 1 µM; Ki [14]: 6.67 µM |
| Clc1cccc(Cl)c1N=C1NCCN1 [CLONIDINE HYDROCHLORIDE] | – | – | – | 1.98 µM | 2.78 µM | Ki [4]: 2.63 µM; Ki [10]: 6.95 µM; Ki [5]: 0.879 µM |
| N[C@H](C(=O)O)c1ccc(C(=O)O)c(C(=O)O)c1 | 7.61 µM | 7.55 µM | 2.04 µM | – | – | – |

Source: ChEMBL document CHEMBL5442175, “EUbOPEN Chemogenomics Library - PDSP Secondary Binding” (2024)
